Measured values: US5731345A, “Seco-D steroids active on the cardiovascular system and pharmaceutical compositions containing same” (Sigma-Tau Industrie Farmaceutiche Riunite S.p.A, priority 1995, dated 1998)
Like-named read-outs stand apart in the source and are kept apart here.

Experiments:
[1] = system: spontaneous hypertensive rats (MHS); assay: prevention of development of hypertension in pre-hypertensive rats, indirect tail-cuff plethysmography (SBP and HR); format: in vivo, rat; conditions: 5 week treatment, 20 mg/kg/os daily in 0.5% w/v Methocel; for SBP: controls 172+/-5.0; for HR: controls 380+/-6.3
Description: Systolic blood pressure (SBP) and heart rate (HR) were measured by an indirect tail-cuff plethysmographic method in […] pre-hypertensive male rats, (MHS or SHR), i.e. before hypertension onset so as to register the basal value of SBP. The rats were then subdivided in groups of 7 animals each and the groups were divided in control and treated group. The compound, suspended in 0.5% (w/v) Methocel, was orally administered daily for at least five weeks. The control group received only Methocel.
SBP and HR were measured weekly, 6 and 24 hours after the treatment.
After five weeks of treatment, when the hypertension was fully developed in the control group ([…]) a one-week wash-out was conducted in order to verify whether SBP would remain low or restored to the basal values of the control group.

Na^+, K^+ -ATPase [2] = biological target: T1, Na^+, K^+ -ATPase (Canis lupus familiaris, UniProt P50997); assay: displacement of specific ^3 H-oubain binding from purified Na^+, K^+ -ATPase receptor
T1 construct: from tissue
From the text: (§1) To test the affinity for the receptor site of the Na^+, K^+ -ATPase and the agonist or inhibitory activity on the enzyme, the following tests were used:
a) displacement of the specific ^3 H-oubain binding from the Na^+, K^+ -ATPase receptor purified according to Jorghensen (Jorghensen P., BBA, 1974, 356, 36) and Erdamnn (Erdmann E. et al., Arzneim. Forsh, 1984, 34, 1314);

Na^+, K^+ -ATPase [3] = format: biochemical; conditions: purified Na^+, hydrolysis of ^32 P-ATP
From the text: as §1
b) inhibition of the activity of the purified Na^+, K^+ -ATPase measured as % of hydrolysis of ^32 P-ATP in the presence and in the absence of the tested compound (Doucet A. et al., Am. J. Physiol., 1986, 251, F851).

Structure (SMILES): CC[C@H](c1ccoc1)[C@@]1(C)CC[C@H]2[C@@H](CC[C@@H]3C[C@@H](O)CC[C@@]32C)[C@@H]1O [Comp. I-a, 17β-(3-furyl)-14,15-seco-5βandrostan-3β,14β-diol]
- SBP [1]: 155+/-4.3 mm Hg
- HR [1]: 370+/-10.5 beats/min.

Structure (SMILES): CC[C@H](c1ccoc1)[C@@]1(C)CC[C@H]2[C@@H](CC[C@@H]3C[C@@H](O)CC[C@@]32C)C1=O [Comp. I-c, 17β-(3-furyl)-14-oxo-14,15-seco-5β-androstan-3β-ol]
- IC50 (Na^+, K^+ -ATPase [2]; purified Na^+, K^+ -ATPase receptor, read-out: Binding ^3 H-oubain displacement -log IC50 (converted)): 6310 nM
- Inhibitory activity -log IC50 (Na^+, K^+ -ATPase [3]): 4.3

Structure (SMILES): CC[C@H](C1=CC(=O)OC1)[C@@]1(C)CC[C@H]2[C@@H](CC[C@@H]3C[C@@H](O)CC[C@@]32C)C1=O [Comp. I-d, 3β-hydroxy-14-oxo-14,15-seco-5β-card-20(22)-enolide]
- IC50 (Na^+, K^+ -ATPase [2]): 200 nM
- Inhibitory activity -log IC50 (Na^+, K^+ -ATPase [3]): 5.6
- SBP [1]: 156+/-4.6 mm Hg
- HR [1]: 383+/-11.4 beats/min.

Structure (SMILES): CC[C@H](C1=CC(=O)OC1)[C@@]1(C)CC[C@H]2[C@@H](CC[C@@H]3C[C@@H](O)CC[C@@]32C)[C@@H]1O [Comp. I-e, 3β,14β-dihydroxy-14,15-seco-5β-card-20(22)-enolide]
- IC50 (Na^+, K^+ -ATPase [2]): 126 nM
- Inhibitory activity -log IC50 (Na^+, K^+ -ATPase [3]): 5.1

Structure (SMILES): C[C@]12CC[C@H](O)C[C@H]1CC[C@H]1[C@H](O)[C@@](C)([C@H](CC#N)C3=CC(=O)OC3)CC[C@@H]12 [Comp. I-h, 3β,14β-dihydroxy-14,15-seco-5β-card-20(22)-enolide-15-nitrile]
- SBP [1]: 160+/-7.8 mm Hg
- HR [1]: 377+/-10.5 beats/min.

Structure (SMILES): CN(C)CCO/N=C/C[C@H](C1=CC(=O)OC1)[C@@]1(C)CC[C@H]2[C@@H](CC[C@@H]3C[C@@H](O)CC[C@@]32C)C1=O [Comp. I-i, 3β-hydroxy-14-oxo-14,15-seco-5β-card-20(22)-enolide-15-(2-dimethylaminoethoxy-(E)-imino)]
- IC50 (Na^+, K^+ -ATPase [2]): 2510 nM
- Inhibitory activity -log IC50 (Na^+, K^+ -ATPase [3]): 4.0

Structure (SMILES): CN(C)CCO/N=C\C[C@H](C1=CC(=O)OC1)[C@@]1(C)CC[C@H]2[C@@H](CC[C@@H]3C[C@@H](O)CC[C@@]32C)C1=O [Comp. I-l, 3β-hydroxy-14-oxo-14,15-seco-5β-card-20(22)-enolide-15(2-dimethylaminoethoxy-(Z)-imino)]
- IC50 (Na^+, K^+ -ATPase [2]): 3980 nM
- Inhibitory activity -log IC50 (Na^+, K^+ -ATPase [3]): 4.2

Structure (SMILES): C[C@]12CC[C@H](O)C[C@H]1CC[C@H]1C(=O)[C@@](C)([C@H](C/C=N/NC(=N)N)C3=CC(=O)OC3)CC[C@@H]12 [Comp. I-m, 3β-hydroxy-14-oxo-14,15-seco-5β-card-20(22)enolide-15-(E)-(guanidinoimino)]
- IC50 (Na^+, K^+ -ATPase [2]): 3160 nM
- Inhibitory activity -log IC50 (Na^+, K^+ -ATPase [3]): 4.1
